Here are results for two compounds from ChEMBL document CHEMBL4507276 (2021).

Series [1] concerns the target Serine/threonine-protein kinase VRK2 (Homo sapiens) (UniProt Q86Y07). As to conditions: Compound concentration 1000.0 nM; call rule not given here.
Series [2] has as its target Glutamate receptor ionotropic, NMDA 2A (Rattus norvegicus) (UniProt Q00959). In words: NMDAPHSI/R Eurofins-Panlabs selectivity data (BI). As to conditions: Compound concentration 10.0 uM.
The test system of series [3] is Epidermal growth factor receptor (Homo sapiens), P00533 [L858R]. In words: EGFR L858R Invitrogen selectivity data (BI). To be noted: Compound concentration 3.0 uM.
Series [4] has as its target Serine/threonine-protein kinase WNK2 (Homo sapiens) (UniProt Q9Y3S1). The series can be described thus: WNK2 Invitrogen selectivity data (BI). As to conditions: Compound concentration 3.0 uM.
Series [5] addresses T1, Myotonin-protein kinase (Homo sapiens) (UniProt Q09013).
T1 sequence (whole entry): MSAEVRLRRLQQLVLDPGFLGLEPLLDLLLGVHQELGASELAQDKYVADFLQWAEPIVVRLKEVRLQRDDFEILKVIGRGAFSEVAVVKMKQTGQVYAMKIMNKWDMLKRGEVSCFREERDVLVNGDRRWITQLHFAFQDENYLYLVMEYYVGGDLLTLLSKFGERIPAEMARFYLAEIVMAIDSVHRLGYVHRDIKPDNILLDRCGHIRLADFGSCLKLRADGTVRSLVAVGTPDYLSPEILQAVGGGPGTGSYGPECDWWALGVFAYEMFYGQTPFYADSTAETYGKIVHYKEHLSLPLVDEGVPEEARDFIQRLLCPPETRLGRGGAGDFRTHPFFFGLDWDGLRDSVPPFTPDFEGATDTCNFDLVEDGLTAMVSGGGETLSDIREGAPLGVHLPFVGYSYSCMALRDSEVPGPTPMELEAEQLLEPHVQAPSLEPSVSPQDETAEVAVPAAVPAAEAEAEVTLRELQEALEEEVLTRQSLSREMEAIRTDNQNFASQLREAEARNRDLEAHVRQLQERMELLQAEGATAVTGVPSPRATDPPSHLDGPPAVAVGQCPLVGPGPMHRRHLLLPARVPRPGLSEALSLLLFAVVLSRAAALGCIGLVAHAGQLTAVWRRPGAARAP
The series can be described thus: DMPK Invitrogen selectivity data (BI). As to conditions: Compound concentration 3.0 uM.

For series [6], the system named is Hepatocyte growth factor receptor (Homo sapiens), P08581 [M1250T]. The series can be described thus: MET M1250T Invitrogen selectivity data (BI). To be noted: Compound concentration 3.0 uM.
In series [7] the target is T2, Homeodomain-interacting protein kinase 4 (Homo sapiens) (UniProt Q8NE63).
T2 sequence (whole entry): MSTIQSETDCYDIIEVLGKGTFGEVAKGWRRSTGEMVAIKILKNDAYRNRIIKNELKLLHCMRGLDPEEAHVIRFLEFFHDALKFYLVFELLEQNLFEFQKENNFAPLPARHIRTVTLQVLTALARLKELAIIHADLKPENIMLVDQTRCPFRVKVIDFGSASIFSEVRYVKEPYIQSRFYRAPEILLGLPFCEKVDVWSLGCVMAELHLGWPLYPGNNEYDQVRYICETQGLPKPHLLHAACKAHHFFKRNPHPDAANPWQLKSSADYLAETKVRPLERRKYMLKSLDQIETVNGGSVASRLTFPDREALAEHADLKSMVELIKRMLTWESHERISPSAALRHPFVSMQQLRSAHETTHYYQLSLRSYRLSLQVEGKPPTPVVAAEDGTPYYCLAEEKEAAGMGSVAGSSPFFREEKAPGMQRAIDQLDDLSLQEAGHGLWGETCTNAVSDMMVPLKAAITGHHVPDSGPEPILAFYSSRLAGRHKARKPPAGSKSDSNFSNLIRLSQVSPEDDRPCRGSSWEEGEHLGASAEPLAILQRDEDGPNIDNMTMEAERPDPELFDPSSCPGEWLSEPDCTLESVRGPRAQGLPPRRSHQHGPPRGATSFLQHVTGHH
In words: HIPK4 Invitrogen selectivity data (BI). As to conditions: Compound concentration 3.0 uM.

Series [8] concerns the target Tyrosine-protein kinase ABL1 (Homo sapiens) (UniProt P00519). In words: ABL_CE Cerep selectivity data (BI). As to conditions: Compound concentration 20.0 uM.
Series [9] deals with T3, D(4) dopamine receptor (Homo sapiens) (UniProt P21917).
T3 sequence (whole entry): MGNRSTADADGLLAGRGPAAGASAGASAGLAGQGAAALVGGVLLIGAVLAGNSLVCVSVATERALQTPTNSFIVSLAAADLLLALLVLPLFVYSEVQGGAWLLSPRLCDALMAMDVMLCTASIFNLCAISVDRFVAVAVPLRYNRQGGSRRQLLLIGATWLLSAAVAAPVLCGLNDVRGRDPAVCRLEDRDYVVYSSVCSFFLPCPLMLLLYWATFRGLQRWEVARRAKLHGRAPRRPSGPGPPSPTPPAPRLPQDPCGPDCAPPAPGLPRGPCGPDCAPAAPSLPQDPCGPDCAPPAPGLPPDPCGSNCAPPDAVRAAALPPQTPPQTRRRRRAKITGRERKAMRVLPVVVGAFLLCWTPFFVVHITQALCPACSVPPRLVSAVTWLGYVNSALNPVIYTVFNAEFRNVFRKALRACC
The series can be described thus: D4.2/H Eurofins-Panlabs selectivity data (BI). To be noted: Compound concentration 10.0 uM.

In series [10] the test system is Tyrosine-protein kinase JAK2 (Homo sapiens), O60674 [V617F]. In words: JAK2 V617F Invitrogen selectivity data (BI). As to conditions: Compound concentration 3.0 uM.
For series [11], the target named is Adenosine receptor A1 (Homo sapiens) (UniProt P30542). The series can be described thus: A1H_AGON Cerep selectivity data (BI). As to conditions: filed as agonist, Compound concentration 20.0 uM.
Sequence of Adenosine receptor A1 (Homo sapiens) (P30542 whole entry): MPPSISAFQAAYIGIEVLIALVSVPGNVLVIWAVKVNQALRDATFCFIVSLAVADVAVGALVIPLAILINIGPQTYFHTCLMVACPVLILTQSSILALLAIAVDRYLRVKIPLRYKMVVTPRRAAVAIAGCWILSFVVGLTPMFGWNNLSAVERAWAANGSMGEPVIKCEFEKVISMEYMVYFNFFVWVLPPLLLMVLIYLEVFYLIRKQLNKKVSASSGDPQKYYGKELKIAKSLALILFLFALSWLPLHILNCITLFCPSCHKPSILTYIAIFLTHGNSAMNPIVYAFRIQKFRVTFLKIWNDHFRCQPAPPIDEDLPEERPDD
The target of series [12] is L-type Ca2+ channel (diltiazem site), Cav1.2 alpha-1C (Rattus norvegicus, UniProt P22002). In words: CA+/DILSI/RA Eurofins-Panlabs selectivity data (BI). To be noted: compound concentration 10 uM, read-out: % Ctrl.
The target in series [13] is Myosin light chain kinase, smooth muscle (Homo sapiens) (UniProt Q15746). The series can be described thus: MYLK Invitrogen selectivity data (BI). To be noted: Compound concentration 3.0 uM.
The target of series [14] is Serine/threonine-protein kinase 33 (Homo sapiens) (UniProt Q9BYT3). The series can be described thus: STK33 Invitrogen selectivity data (BI). As to conditions: Compound concentration 3.0 uM.
Sequence of Serine/threonine-protein kinase 33 (Homo sapiens) (Q9BYT3 whole entry, looked up): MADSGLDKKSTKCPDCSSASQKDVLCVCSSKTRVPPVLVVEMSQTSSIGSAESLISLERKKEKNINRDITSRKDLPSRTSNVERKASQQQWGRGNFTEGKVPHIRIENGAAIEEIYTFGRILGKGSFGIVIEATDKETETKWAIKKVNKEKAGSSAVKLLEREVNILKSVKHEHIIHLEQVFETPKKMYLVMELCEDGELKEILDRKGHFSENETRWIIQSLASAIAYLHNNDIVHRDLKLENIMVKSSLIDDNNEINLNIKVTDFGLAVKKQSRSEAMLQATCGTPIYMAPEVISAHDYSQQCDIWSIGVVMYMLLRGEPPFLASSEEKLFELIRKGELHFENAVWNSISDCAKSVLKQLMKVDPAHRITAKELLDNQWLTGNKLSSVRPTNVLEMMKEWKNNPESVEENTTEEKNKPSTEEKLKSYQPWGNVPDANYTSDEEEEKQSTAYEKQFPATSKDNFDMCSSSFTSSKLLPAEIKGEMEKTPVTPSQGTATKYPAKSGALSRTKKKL
Series [15] concerns the target Dual specificity protein kinase CLK2 (Homo sapiens) (UniProt P49760). In words: CLK2 Invitrogen selectivity data (BI). As to conditions: Compound concentration 3.0 uM.
For series [16], the target named is Tyrosine-protein kinase Fes/Fps (Homo sapiens) (UniProt P07332). The series can be described thus: FES Invitrogen selectivity data (BI). To be noted: Compound concentration 3.0 uM.
Sequence of Tyrosine-protein kinase Fes/Fps (Homo sapiens) (P07332 whole entry): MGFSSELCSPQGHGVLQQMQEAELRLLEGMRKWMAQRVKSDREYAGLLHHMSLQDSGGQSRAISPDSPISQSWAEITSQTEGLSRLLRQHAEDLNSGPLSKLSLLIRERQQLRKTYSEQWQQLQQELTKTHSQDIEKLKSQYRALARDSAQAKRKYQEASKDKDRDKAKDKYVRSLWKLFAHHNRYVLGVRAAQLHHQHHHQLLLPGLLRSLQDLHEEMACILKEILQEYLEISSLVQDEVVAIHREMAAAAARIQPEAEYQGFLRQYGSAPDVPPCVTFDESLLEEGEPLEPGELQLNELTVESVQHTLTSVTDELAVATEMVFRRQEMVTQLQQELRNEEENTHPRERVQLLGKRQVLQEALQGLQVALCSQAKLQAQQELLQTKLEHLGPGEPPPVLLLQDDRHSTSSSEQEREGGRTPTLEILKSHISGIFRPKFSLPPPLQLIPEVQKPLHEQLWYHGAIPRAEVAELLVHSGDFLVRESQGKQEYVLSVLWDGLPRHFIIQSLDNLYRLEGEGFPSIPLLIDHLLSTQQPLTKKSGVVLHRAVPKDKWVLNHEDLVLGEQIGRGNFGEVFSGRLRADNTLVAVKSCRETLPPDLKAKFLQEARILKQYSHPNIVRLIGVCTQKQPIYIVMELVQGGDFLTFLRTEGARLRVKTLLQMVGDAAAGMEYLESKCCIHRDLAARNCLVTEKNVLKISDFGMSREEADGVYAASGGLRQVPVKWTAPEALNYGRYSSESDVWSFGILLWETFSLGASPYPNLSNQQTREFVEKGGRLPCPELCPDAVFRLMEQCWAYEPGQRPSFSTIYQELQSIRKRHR
In series [17] the target is Mitogen-activated protein kinase 3 (Homo sapiens) (UniProt P27361). The series can be described thus: MAPK3 Invitrogen selectivity data (BI). To be noted: Compound concentration 3.0 uM.
Sequence of Mitogen-activated protein kinase 3 (Homo sapiens) (P27361 whole entry): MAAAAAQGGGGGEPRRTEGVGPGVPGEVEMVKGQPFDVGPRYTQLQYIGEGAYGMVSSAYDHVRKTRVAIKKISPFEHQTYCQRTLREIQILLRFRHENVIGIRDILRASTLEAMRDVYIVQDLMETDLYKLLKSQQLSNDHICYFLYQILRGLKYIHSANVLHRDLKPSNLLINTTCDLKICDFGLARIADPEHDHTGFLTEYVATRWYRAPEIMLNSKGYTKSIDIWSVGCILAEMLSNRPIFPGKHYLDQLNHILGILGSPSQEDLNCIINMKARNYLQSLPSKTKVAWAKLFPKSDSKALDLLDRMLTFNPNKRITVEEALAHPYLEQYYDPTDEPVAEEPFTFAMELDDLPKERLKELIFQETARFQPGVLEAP
In series [18] the target is Protein kinase C beta type (Homo sapiens) (UniProt P05771). In words: PRKCB1 Invitrogen selectivity data (BI). As to conditions: Compound concentration 3.0 uM.
Series [19] has as its target Muscarinic acetylcholine receptor M3 (Homo sapiens) (UniProt P20309). To be noted: Compound concentration 10.0 uM.
In series [20] the target is DNA-dependent protein kinase catalytic subunit (Homo sapiens) (UniProt P78527). The series can be described thus: DNA-PK Invitrogen selectivity data (BI). To be noted: Compound concentration 3.0 uM.
The target in series [21] is Dual specificity tyrosine-phosphorylation-regulated kinase 1B (Homo sapiens) (UniProt Q9Y463). In words: DYRK1B Invitrogen selectivity data (BI). As to conditions: Compound concentration 3.0 uM.
Sequence of Dual specificity tyrosine-phosphorylation-regulated kinase 1B (Homo sapiens) (Q9Y463 whole entry, looked up): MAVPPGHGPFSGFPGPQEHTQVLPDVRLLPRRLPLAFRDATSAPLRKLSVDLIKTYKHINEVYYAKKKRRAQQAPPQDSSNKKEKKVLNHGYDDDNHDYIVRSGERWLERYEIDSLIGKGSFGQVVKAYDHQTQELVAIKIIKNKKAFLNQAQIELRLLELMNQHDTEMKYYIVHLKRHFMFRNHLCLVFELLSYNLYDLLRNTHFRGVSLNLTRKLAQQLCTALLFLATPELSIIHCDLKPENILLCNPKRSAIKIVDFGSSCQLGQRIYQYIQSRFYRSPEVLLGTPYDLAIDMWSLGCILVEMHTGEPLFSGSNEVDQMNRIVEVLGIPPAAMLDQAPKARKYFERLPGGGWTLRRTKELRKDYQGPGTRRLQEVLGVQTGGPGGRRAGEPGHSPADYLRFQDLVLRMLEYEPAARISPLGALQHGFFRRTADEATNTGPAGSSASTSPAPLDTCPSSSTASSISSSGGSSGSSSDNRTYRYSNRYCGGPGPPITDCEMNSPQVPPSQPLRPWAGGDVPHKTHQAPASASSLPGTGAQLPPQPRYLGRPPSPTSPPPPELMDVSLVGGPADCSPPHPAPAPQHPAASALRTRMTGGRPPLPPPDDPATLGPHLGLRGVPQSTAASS
Series [22] addresses Mitogen-activated protein kinase kinase kinase 10 (Homo sapiens) (UniProt Q02779). The series can be described thus: MAP3K10 Invitrogen selectivity data (BI). To be noted: Compound concentration 3.0 uM.
In series [23] the target is Angiotensin-converting enzyme (Homo sapiens) (UniProt P12821). The series can be described thus: ACE(HU) Cerep selectivity data (BI). As to conditions: Compound concentration 20.0 uM.

Sequence of Serine/threonine-protein kinase VRK2 (Homo sapiens) (Q86Y07 whole entry): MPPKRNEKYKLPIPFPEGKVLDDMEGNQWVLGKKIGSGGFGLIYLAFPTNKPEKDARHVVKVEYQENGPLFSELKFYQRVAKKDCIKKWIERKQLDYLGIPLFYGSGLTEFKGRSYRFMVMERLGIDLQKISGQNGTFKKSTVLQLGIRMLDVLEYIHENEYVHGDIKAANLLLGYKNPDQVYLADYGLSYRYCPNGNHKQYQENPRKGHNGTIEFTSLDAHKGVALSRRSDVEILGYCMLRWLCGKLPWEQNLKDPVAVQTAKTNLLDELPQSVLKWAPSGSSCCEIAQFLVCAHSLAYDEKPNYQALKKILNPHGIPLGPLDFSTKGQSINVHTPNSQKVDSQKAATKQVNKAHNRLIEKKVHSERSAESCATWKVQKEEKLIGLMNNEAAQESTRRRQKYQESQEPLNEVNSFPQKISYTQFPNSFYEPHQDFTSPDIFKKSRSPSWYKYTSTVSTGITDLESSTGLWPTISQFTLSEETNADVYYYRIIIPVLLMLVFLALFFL
Sequence of Tyrosine-protein kinase ABL1 (Homo sapiens) (P00519 whole entry): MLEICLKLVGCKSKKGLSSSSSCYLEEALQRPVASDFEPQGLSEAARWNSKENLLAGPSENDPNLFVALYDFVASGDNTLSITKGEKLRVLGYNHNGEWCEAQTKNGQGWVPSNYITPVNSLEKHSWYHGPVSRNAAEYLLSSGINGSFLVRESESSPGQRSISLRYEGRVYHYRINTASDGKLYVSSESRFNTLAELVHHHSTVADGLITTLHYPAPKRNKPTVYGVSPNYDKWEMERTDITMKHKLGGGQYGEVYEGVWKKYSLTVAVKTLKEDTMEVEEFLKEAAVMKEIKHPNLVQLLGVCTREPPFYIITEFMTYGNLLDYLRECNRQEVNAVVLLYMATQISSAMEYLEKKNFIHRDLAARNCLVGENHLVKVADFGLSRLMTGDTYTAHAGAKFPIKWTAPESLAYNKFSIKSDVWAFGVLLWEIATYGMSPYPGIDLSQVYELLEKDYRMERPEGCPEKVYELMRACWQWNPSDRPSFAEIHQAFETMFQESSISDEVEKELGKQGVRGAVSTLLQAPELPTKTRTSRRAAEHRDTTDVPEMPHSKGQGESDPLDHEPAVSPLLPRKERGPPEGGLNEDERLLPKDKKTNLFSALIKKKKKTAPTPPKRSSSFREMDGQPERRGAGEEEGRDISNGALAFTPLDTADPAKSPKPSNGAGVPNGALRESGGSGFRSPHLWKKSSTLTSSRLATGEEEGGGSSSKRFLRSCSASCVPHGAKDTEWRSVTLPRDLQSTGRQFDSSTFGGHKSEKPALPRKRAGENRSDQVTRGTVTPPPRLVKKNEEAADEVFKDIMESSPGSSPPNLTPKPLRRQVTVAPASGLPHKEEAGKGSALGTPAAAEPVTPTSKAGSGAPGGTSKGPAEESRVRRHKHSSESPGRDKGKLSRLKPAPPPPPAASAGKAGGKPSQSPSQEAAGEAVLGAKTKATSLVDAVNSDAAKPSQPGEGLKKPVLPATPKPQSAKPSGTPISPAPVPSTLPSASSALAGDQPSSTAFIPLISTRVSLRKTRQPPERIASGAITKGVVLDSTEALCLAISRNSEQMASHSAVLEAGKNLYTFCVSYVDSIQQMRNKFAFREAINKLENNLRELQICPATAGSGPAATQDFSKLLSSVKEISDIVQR
Sequence of Muscarinic acetylcholine receptor M3 (Homo sapiens) (P20309 whole entry, looked up): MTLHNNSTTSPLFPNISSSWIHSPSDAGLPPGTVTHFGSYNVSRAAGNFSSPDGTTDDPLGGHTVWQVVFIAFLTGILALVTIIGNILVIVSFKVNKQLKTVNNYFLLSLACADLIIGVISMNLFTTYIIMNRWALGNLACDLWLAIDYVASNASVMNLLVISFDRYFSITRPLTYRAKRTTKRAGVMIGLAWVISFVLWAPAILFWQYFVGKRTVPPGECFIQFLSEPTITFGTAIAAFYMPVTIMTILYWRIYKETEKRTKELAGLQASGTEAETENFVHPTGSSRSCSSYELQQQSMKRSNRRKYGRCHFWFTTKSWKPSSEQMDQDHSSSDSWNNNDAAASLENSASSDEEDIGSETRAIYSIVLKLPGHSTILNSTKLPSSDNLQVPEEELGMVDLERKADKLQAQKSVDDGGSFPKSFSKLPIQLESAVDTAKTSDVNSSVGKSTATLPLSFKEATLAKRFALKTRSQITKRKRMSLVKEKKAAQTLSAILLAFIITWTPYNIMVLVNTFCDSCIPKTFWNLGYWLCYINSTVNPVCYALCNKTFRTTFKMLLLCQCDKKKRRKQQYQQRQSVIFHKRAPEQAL

For the compound `CN(C)C(=O)Cn1cc(-c2nc(C3(c4ccc(-c5cnc(N)nc5)cc4)CC3)no2)cn1` [BI 0153], the residual activity in [1] was 90%.
For orientation: inhibition means the relative decrease from the control value, in per cent. Regarding `CN(C)C(=O)Cn1cc(-c2nc([C@@](C)(c3ccc(-c4cnc(N)nc4)cc3)C3CC3)no2)cn1` [BI 665915], the residual activity in series [2] was 111%; in [3], 96%; in [4], 96%; in series [5], 100%; in series [6] it was 105%; in [7], 98.5%. Moreover, the residual activity is 33% in series [8]; 98% in series [9]; 96% in series [10]; 81% in [11]; 100% in [13]; 101% in [14]. Besides, the residual activity is 95.5% in [15]; 94.5% in [16]; 97% in series [17]; 98.5% in series [18]; 91% in series [20]; 104% in [21]. Moreover, the residual activity was 88% in series [22] and 127% in series [23]. For the same compound, the activity at 10 µM in [12] is given as 73% (not active). For the same compound, the inhibition in series [19] was 7.43%.
